This note sets out measurements from ChEMBL document CHEMBL3217509, “Discovery of an HIV integrase inhibitor with an excellent resistance profile” (Medchemcomm, 2013).

Active and inactive are the calls of the source. The rule behind the calls is not given here.

For data set [1], the system named is Human immunodeficiency virus 1. Kind of data set: Antiviral activity against HIV1 infected in human MT2 cells assessed as emergence of breakthrough at 10 times IC50. The class given is functional, organism-based.
Data set [2] is described as follows: Intrinsic clearance in human liver microsomes assessed per mg of protein by LC-MS/MS analysis in presence of UDPGA. The format is ADME. As to conditions: read-out: CLH. (Microsomes from liver hold many membrane-bound enzymes, among them those of drug oxidation.)
Data set [3] in a line: Drug metabolism in iv dosed dog urine. The format is ADME, organism-based, Canis lupus familiaris. The settings on record: in vivo.
A short description of data set [4]: Plasma protein binding in human. The class given is ADME, cell-free. As to conditions: read-out: PPB (converted).
Data set [5] addresses Human immunodeficiency virus type 1 integrase (Human immunodeficiency virus 1, UniProt Q7ZJM1). Kind of data set: Inhibition of HIV1 HXB2 full length amino terminal 6-HIs tagged integrase expressed in Escherichia coli using [3H]thymidine-labeled DNA/biotinylated ds-DNA as substrate assessed as inhibition of strand transfer after 50 mins by scintillation proximity assay. In general terms: In a scintillation proximity assay essentially only radioactivity close to the scintillant gives light.

The subject of data set [6] is Human immunodeficiency virus 1. As to the kind of experiment: Resistance ratio of IC50 for MLV pseudotyped HIV1 NL4-3 expressing integrase G140A mutant to IC50 for MLV pseudotyped HIV1 NL4-3 expressing wild type integrase. The class given is functional.
For data set [7], the system named is Human immunodeficiency virus 1. Kind of data set: Resistance ratio of IC50 for MLV pseudotyped HIV1 NL4-3 expressing integrase Q148K mutant to IC50 for MLV pseudotyped HIV1 NL4-3 expressing wild type integrase. The class given is functional.
Data set [8] in a line: Partition coefficient, pKa of the compound. The format is physicochemical. As to conditions: octanol/water.
A short description of data set [9]: Volume of distribution at steady state in dog at 0.1 mg/kg, iv. Set-up: dose 0.1 mg/kg, route intravenous. As to conditions: in vivo, read-out: Vdss. The class given is ADME, organism-based, Canis lupus familiaris.
In data set [10] the test system is Human immunodeficiency virus 1. As to the kind of experiment: Inhibition of MLV pseudotyped HIV1 NL4-3 expressing integrase G140S/Q148K mutant. The class given is functional, organism-based.
In data set [11] the test system is Human immunodeficiency virus 1. As to the kind of experiment: Resistance ratio of IC50 for MLV pseudotyped HIV1 NL4-3 expressing integrase F121Y mutant to IC50 for MLV pseudotyped HIV1 NL4-3 expressing wild type integrase. The format is functional.
For data set [12], the system named is Human immunodeficiency virus 1. Kind of data set: Resistance ratio of IC50 for MLV pseudotyped HIV1 NL4-3 expressing integrase S153Y mutant to IC50 for MLV pseudotyped HIV1 NL4-3 expressing wild type integrase. The class given is functional.
Data set [13] is described as follows: Activity at UGT1A2 (unknown origin) assessed as metabolite metabolism. The class given is ADME. As to conditions: human.
The subject of data set [14] is Human immunodeficiency virus 1. Kind of data set: Resistance ratio of IC50 for MLV pseudotyped HIV1 NL4-3 expressing integrase T66I/S153Y mutant to IC50 for MLV pseudotyped HIV1 NL4-3 expressing wild type integrase. The class given is functional.
Data set [15] can be described thus: Clearance in dog liver microsomes assessed per mg of protein in presence of UDPGA. The format is ADME, Canis lupus familiaris. The settings on record: read-out: CLH.
A further data set deals with Rattus norvegicus. As to the kind of experiment: Toxicity in rat assessed as histopathological abnormalities at 25 times antiviral IC50 administered for 7 days. The format is organism-based. The settings on record: in vivo, 168 h.

Sequence of Human immunodeficiency virus type 1 integrase (Q7ZJM1 whole entry): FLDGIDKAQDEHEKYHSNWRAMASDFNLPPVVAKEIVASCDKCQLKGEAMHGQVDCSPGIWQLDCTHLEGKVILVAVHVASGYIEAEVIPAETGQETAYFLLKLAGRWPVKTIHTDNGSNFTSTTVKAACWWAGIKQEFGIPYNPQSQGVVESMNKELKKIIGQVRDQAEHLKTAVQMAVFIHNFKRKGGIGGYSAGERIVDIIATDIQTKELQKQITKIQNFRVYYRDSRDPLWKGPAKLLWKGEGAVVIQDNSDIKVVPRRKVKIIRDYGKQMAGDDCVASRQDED

Take `COc1cc(F)ccc1Cn1ccc2c3c(ncc21)C(=O)N(O)CC3` [PF-04776548]: in [1], the outcome was Active. Besides, the microsomal CLint was 28 µL/min/mg in [2] and 21 µL/min/mg in [15]. Also, the Drug metabolism entry in data set [3] is “Active”. The fraction unbound in [4] is 0.08. The 50% inhibitory concentration (IC50) (commonly the concentration that inhibits the measured activity by half) in [5] turned out to be 40.5 nM. The “Ratio IC50” value in data set [6], in [7], in data set [11], in [12] and in data set [14] was below 10 in each case. The pKa (as a rule, the negative logarithm of the acid dissociation constant) in data set [8] came out at 7.6. The Vd in [9] is 2 L/kg. Also, in data set [10], the inhibition result was “inactive”. Moreover, the values for the Activity entry (in [13]; with Rattus norvegicus) were “Not Active” and “Non-toxic”, respectively.
